Read-outs that look alike come from different tables or passages of the source.
What was measured:
male SJL mice = experiment: EAE induced with PLP 139-151 in male SJL mice; format: in vivo
[1] = cited from earlier work
DLN cells = experiment: PLP 139-151 induced cytokine production by DLN cells (ELISA); format: in vivo, mice; settings: 48-72 hours after PLP 139-151 stimulation
Protocol: Cytokine detection by ELISA. DLN cells were cultured at 4×10^6/ml and stimulated with the appropriate antigen in 24 well culture plates. Cell culture supernatants were recovered between 48-72 hr and frozen at −70° C. until needed for the cytokine assay. Measurement of cytokines was performed by ELISA using cytokine specific capture and detection antibodies (Pharmingen). Standard curves for each assay were generated using recombinant mouse cytokines (Pharmingen), and the concentration of cytokines in the cell supernatants was determined by interpolation from the appropriate standard curve. IFN-γ, TNF-α and IL-12 were chosen as representative Th1 cytokines, while IL-4 and IL-10 were measured as representative Th2 cytokines.
To determine if low dose estrogen therapy altered cytokine secretion patterns, DLN cells were prepared from individual mice at the peak of clinical EAE and cytokine levels were measured 48-72 hours after in vitro stimulation with PLP 139-151. IFN-γ, IL-12, and TNF-α were used as representative Th1 cytokines while IL-4, and IL-10 were used as representative Th2 cytokines. […] Despite the lack of statistical significance, the trend towards higher Th1 and lower Th2 cytokines points towards a subtle shift in the Th1/Th2 balance. The shift can be seen more clearly when the cytokine response of each individual mouse is plotted as a ratio of IFN-γ to IL-10 (FIG. 5C). There was a marked decrease in the frequency of high Th1 responder mice in the E2 and E3 treated groups when compared to placebo animals that approached significance (p=0.09 for the 5.0 mg E3 treated mice). Additionally, no informative trends were detected in IL-4 secretion (FIG. 5D), and TNF-α secretion was very often below the limits of detection for the assay (<31.25 pg/ml). Modest changes in cytokine responses induced by low dose estrogen therapy were also observed in the B10.PL model and were consistent with the data described for the SJL model.

female SJL mice = experiment: EAE induced with PLP 139-151 in female SJL mice (clinical scores, spinal cord histopathology); format: in vivo; settings: for Demyelinated foci/section / Inflammatory foci/section: spinal cord at peak of disease
[2] = tested on: draining lymph node (DLN) cells; experiment: Flow cytometry of activation and adhesion markers on DLN cells of SJL mice with EAE; format: in vivo; settings: DLN cells at peak of EAE
Protocol: Immunofluorescent staining for flow cytometry. Draining lymph node (DLN) cells were removed during the peak of clinical symptoms and analyzed for the expression of cell surface proteins by fluorescent staining ex vivo. The following fluorochrome conjugated antibodies obtained from Pharmingen Inc. (San Diego, Calif.) were used for the direct staining of DLN cells: anti-CD4, anti-CD25, anti-CD69, anti-CD95L, anti-CD44, anti-CD62L, anti-CD49d. Two-color immunofluorescent analysis was performed on a FACScan instrument (Becton Dickinson, Mountain View, Calif.) using Cellquest software. For each experiment the cells were stained with isotype control antibodies to establish background staining, and to set the quadrants prior to calculating the percent positive staining cells. […] Alterations in the expression of adhesion or activation markers on T cells are often indicative of functional changes in the cell. Monoclonal antibodies specific for a number of these markers were used to assess whether estrogen therapy altered their expression. Draining lymph node (DLN) cells were recovered from mice during the peak of clinical EAE, incubated with the indicated fluorochrome conjugated monoclonal antibodies, and surface expression measured by fluorescent activated cell analyzer.

B10.PL mice = experiment: EAE induced with MBP Ac1-11 in B10.PL mice; format: in vivo

C[C@]12CC[C@@H]3c4ccc(O)cc4CC[C@H]3[C@@H]1C[C@@H](O)[C@@H]2O [Estriol, estriol]
CDI (male SJL mice; 2.5 mg/pellet): 3.2 ± 2.5 | Incidence (male SJL mice; 2.5 mg/pellet): 2/3 | Incidence (%) (male SJL mice; 2.5 mg/pellet): 67% | Onset (male SJL mice; 2.5 mg/pellet): 16.5 ± 0.7 days | Peak (disease score) (male SJL mice; 2.5 mg/pellet): 0.67 ± 0.6 | CDI (male SJL mice; 5.0 mg/pellet): 2.6 ± 5.3 | Incidence (male SJL mice; 5.0 mg/pellet): 1/4 | Incidence (%) (male SJL mice; 5.0 mg/pellet): 25% | Onset (male SJL mice; 5.0 mg/pellet): 16.0 ± 0 days | Peak (disease score) (male SJL mice; 5.0 mg/pellet): 0.50 ± 1.0 | serum concentration from 60-day release pellet ([1]; 0.025 mg pellet): 10 to 20 pg/mL | serum concentration from 60-day release pellet ([1]; 0.1 mg pellet): 40 to 50 pg/mL | serum concentration from 60-day release pellet ([1]; 0.36 mg pellet): 150 to 200 pg/mL | serum concentration from 60-day release pellet ([1]; 1.5 mg pellet): 800-1,000 pg/ml | serum concentration from 60-day release pellet ([1]; 2.5 mg pellet): 2,000-3,000 pg/ml | serum concentration from 60-day release pellet ([1]; 5 mg pellet): 5,000-6,000 pg/ml | serum concentration from 60-day release pellet ([1]; 15 mg pellet): 10,000-15,000 pg/ml | IL-10 secretion by DLN cells (DLN cells): modest increase | IL-12 secretion by DLN cells (DLN cells): small decrease | secretion of IFN-γ by DLN cells (DLN cells; p>0.10): consistently lower | CDI (cumulative disease index) (female SJL mice; 1.5 mg/pellet (low)): 9.3 ± 2.6 | Incidence (female SJL mice; 1.5 mg/pellet (low)): 6/10 | Incidence (%) (female SJL mice; 1.5 mg/pellet (low)): (60%) | Onset (female SJL mice; 1.5 mg/pellet (low)): 16.4 ± 0.7 days | Peak (disease score) (female SJL mice; 1.5 mg/pellet (low)): 2.0 ± 0.0 | Relapse (female SJL mice; 1.5 mg/pellet (low)): 0/3 | Relapse (%) (female SJL mice; 1.5 mg/pellet (low)): (0%) | Demyelinated foci/section (female SJL mice; 2.5 mg pellet): 0.8 ± 0.2 foci/section | Inflammatory foci/section (female SJL mice; 2.5 mg pellet): 1.2 ± 0.6 foci/section | Demyelinated foci/section (female SJL mice; 5.0 mg pellet): 0.3 ± 0.2 foci/section | Inflammatory foci/section (female SJL mice; 5.0 mg pellet): 0.9 ± 0.5 foci/section | CDI (cumulative disease index) (female SJL mice; 5.0 mg/pellet (pregnancy)): 6.5 ± 9 | Incidence (female SJL mice; 5.0 mg/pellet (pregnancy)): 2/5 | Incidence (%) (female SJL mice; 5.0 mg/pellet (pregnancy)): (40%) | Onset (female SJL mice; 5.0 mg/pellet (pregnancy)): 33.5 ± 5.0 days | Peak (disease score) (female SJL mice; 5.0 mg/pellet (pregnancy)): 1.4 ± 2.2 | Relapse (female SJL mice; 5.0 mg/pellet (pregnancy)): 0/2 | Relapse (%) (female SJL mice; 5.0 mg/pellet (pregnancy)): (0%) | CDI (cumulative disease index) (female SJL mice; 15.0 mg/pellet (high)): 4.4 ± 3.5 | Incidence (female SJL mice; 15.0 mg/pellet (high)): 5/10 | Incidence (%) (female SJL mice; 15.0 mg/pellet (high)): (50%) | Onset (female SJL mice; 15.0 mg/pellet (high)): 23.8 ± 9 days | Peak (disease score) (female SJL mice; 15.0 mg/pellet (high)): 1.4 ± 1.1 | Relapse (female SJL mice; 15.0 mg/pellet (high)): 0/1 | Relapse (%) (female SJL mice; 15.0 mg/pellet (high)): (0%) | comparison of E2 and E3 in incidence or severity of EAE (female SJL mice; Fisher exact test, same animal model): equally protective | CD4, % of Total ([2]; 2.5 mg pellet): 45% | CD25, % of CD4+ T cells ([2]; 2.5 mg pellet): 5.5% | CD44, % of CD4+ T cells ([2]; 2.5 mg pellet): 36% | CD62L, % of CD4+ T cells ([2]; 2.5 mg pellet): 12% | CD69, % of CD4+ T cells ([2]; 2.5 mg pellet): 7.5% | CD49d, % of CD4+ T cells ([2]; 2.5 mg pellet): 36% | FASL, % of CD4+ T cells ([2]; 2.5 mg pellet): 3.1% | CD4, % of Total ([2]; 5.0 mg pellet): 47% | CD25, % of CD4+ T cells ([2]; 5.0 mg pellet): 6.4% | CD44, % of CD4+ T cells ([2]; 5.0 mg pellet): 38% | CD62L, % of CD4+ T cells ([2]; 5.0 mg pellet): 8.8% | CD69, % of CD4+ T cells ([2]; 5.0 mg pellet): 8.3% | CD49d, % of CD4+ T cells ([2]; 5.0 mg pellet): 37% | FASL, % of CD4+ T cells ([2]; 5.0 mg pellet): 2.7% | CDI (B10.PL mice; 1.5 mg/pellet (low)): 1.9 ± 1.7 | Incidence (B10.PL mice; 1.5 mg/pellet (low)): 5/8 | Incidence (%) (B10.PL mice; 1.5 mg/pellet (low)): 38% | Onset (B10.PL mice; 1.5 mg/pellet (low)): 30.3 ± 0.9 days | Peak (disease score) (B10.PL mice; 1.5 mg/pellet (low)): 1.38 ± 0.8 | CDI (B10.PL mice; 5 mg/pellet (pregnancy)): 1.0 ± 0.5 | Incidence (B10.PL mice; 5 mg/pellet (pregnancy)): 3/8 | Incidence (%) (B10.PL mice; 5 mg/pellet (pregnancy)): 38% | Onset (B10.PL mice; 5 mg/pellet (pregnancy)): 31.3 ± 0.7 days | Peak (disease score) (B10.PL mice; 5 mg/pellet (pregnancy)): 0.71 ± 0.4 | inhibitory effect on EAE compared with 17β-estradiol (B10.PL mice; B10.PL females): equivalent inhibitory effect on EAE

Reference: US7579006B2, “Method of treating immune pathologies with low dose estrogen” (Oregon Health and Science University, priority 2000, dated 2009)
